# Measurements reported in patent publication US20100261679A1 (priority 2007, published 2010).
# Legend:
# [1] = molecular target: T1, cytoplasmic domain of the human CSF-1R (Homo sapiens, UniProt P07333); experiment: In vitro kinase assay for CSF-1R (AlphaScreen); format: biochemical; settings: tested at about 1 μM
# T1 construct: Recombinant protein corresponding to the cytoplasmic domain of the human CSF-1R; purchased Invitrogen Corporation, Carlsbad, Calif; U.S.A. PV3249
# T1 sequence (P07333 539-972 limits assumed): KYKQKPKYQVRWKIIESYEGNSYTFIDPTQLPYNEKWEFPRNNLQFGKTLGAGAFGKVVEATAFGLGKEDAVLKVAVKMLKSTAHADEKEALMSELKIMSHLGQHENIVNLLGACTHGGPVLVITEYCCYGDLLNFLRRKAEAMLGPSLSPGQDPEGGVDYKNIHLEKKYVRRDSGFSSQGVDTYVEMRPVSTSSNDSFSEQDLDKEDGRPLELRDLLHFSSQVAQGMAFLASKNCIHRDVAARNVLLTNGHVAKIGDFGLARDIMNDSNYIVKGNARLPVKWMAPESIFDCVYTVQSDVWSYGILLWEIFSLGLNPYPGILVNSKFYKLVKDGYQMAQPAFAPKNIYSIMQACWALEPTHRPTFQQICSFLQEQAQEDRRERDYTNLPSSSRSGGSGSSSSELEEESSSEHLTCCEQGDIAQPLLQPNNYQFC
# Method: The kinase activity of various protein tyrosine kinases can be measured by providing ATP and a suitable peptide or protein tyrosine-containing substrate, and assaying the transfer of phosphate moiety to the tyrosine residue. Recombinant protein corresponding to the cytoplasmic domain of the human CSF-1R was purchased from Invitrogen Corporation, Carlsbad, Calif. U.S.A. (#PV3249). For each assay, test compounds were serially diluted, starting at 25 μM with 3 fold dilutions, in DMSO in 384 well plates then mixed with an appropriate kinase reaction buffer consisting of 50 mM Hepes, 5 mM MgCl2, 10 mM MnCl2, 0.1% BSA, pH 7.5, 1.0 mM dithiothreitol, 0.01% Tween 80 plus […]. Kinase protein and an appropriate biotinylated peptide substrate at 50 nM were added to give a final volume of 20 μL, reactions were incubated for 2 hours at room temperature and stopped by the addition of 10 μL of 45 mM EDTA, 50 mM Hepes pH 7.5. Added to the stopped reaction mix was 30 μL of PT66 Alphascreen beads (Perkin Elmer, Boston, Mass., U.S.A.). The reaction was incubated overnight and read on the Envision (Perkin Elmer). Phosphorylated peptide product was measured with the AlphaScreen system (Perkin Elmer) using acceptor beads coated with anti-phosphotyrosine antibody PT66 and donor beads coated with streptavidin that emit a fluorescent signal at the 520-620 nm emission wave length if in close proximity. The concentration of each compound for 50% inhibition (IC50) was calculated by non-linear regression using XL Fit data analysis software.
# CSF-1R kinase was assayed in 50 mM Hepes pH 7.0, 5 mM MgCl2, 10 mM MnCl2, 1 mM DTT, 1 mg/mL BSA, 1.0 μM ATP, and 0.05 μM biotin-GGGGRPRAATF-NH2 (SEQ ID NO:2) peptide substrate. CSF-1R kinase was added at final concentration of 4 nM.
# [2] = molecular target: T2, cKIT (Homo sapiens, UniProt P10721); experiment: Inhibition of cKIT kinase in an in vitro biochemical assay (alphascreen); settings: tested at about 1 μM
# T2 construct: The kinase domain of cKIT was assayed in 50 mM Hepes; purchased Upstate 14-559
# Method: (§1) The IC50 values for the inhibition of RTKs were determined in the alphascreen format measuring the inhibition by compound of phosphate transfer to a substrate by the respective enzyme. Briefly, the respective RTK domain purchased as human recombinant protein (cKIT Upstate #14-559, PDGFRb Invitrogen #P3082) were incubated with serial dilutions of compound in the presence of substrate and ATP concentrations within 3 times the Km of the enzyme.
# (§2) The kinase domain of cKIT was assayed in 50 mM Hepes, pH=7.5, 5 mM MgCl2, 10 mM MnCl2, 1 mM DTT, 0.1% BSA with 0.06 uM biotinylated peptide substrate (GGLFDDPSYVNVQNL-NH2) and 15 μM ATP (ATP KM apparent =15 μM). The kinase domain of PDGFRβ was assayed in 50 mM Hepes, pH=7.5, 20 mM MgCl2, 1 mM DTT, 0.1% BSA with 0.1 μM biotinylated peptide substrate (GGLFDDPSYVNVQNL-NH2) and 10 μM ATP (ATP KM apparent=25 μM). Reactions were incubated at room temperature for 3 to 4 hr and stopped with buffer (20 mM EDTA, 0.01% Tween-20 for both PDGFRβ and cKIT). Alphascreen PY20 beads were added to the stopped cKIT reactions and PY20 Ab/Protein A Alphascreen beads were added to the PDGFRβ stopped reactions. Both reactions were incubated overnight and read on the Alphascreen reader. The concentration of compound for 50% inhibition (IC50) was calculated employing non-linear regression using XL-Fit data analysis software. As a control compound, staurosporine is run in every assay and a Z′>0.5 is required to validate results.
# [3] = molecular target: T3, PDGFRb (Homo sapiens, UniProt P09619); experiment: Inhibition of PDGFRb kinase in an in vitro biochemical assay (alphascreen); settings: tested at about 1 μM; read-out: PDGFR % inhibition at 1 μM
# T3 construct: The kinase domain of PDGFRβ was assayed in 50 mM Hepes; purchased Invitrogen P3082
# Method: as §1, §2
# T2 sequence (P10721 589-937 limits assumed): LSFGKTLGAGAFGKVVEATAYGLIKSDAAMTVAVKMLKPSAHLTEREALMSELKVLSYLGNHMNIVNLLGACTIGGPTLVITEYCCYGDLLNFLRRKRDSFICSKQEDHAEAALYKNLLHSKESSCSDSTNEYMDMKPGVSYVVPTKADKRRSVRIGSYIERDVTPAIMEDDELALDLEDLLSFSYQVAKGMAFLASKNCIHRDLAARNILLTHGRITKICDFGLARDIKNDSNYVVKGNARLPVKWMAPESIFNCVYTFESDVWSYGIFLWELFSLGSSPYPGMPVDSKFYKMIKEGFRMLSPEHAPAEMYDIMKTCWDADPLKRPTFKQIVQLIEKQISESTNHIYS
# T3 sequence (P09619 600-962 limits assumed): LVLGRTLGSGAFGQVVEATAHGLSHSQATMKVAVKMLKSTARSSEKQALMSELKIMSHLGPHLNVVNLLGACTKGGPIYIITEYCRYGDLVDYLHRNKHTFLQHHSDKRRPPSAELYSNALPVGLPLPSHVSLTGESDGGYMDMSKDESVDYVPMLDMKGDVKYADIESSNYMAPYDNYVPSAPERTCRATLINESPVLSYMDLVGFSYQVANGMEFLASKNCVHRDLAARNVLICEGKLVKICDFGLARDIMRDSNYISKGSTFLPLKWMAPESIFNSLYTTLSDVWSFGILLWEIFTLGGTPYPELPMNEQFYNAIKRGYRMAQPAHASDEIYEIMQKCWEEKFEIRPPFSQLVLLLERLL
Compound,inhibition at 1 µM [1] [%],inhibition at 1 µM [2] [%],inhibition at 1 µM [3] [%]
CNC(=O)c1cc(Oc2ccc3nc(N[C@@H](CO)C4CCCCC4)ccc3c2)ccn1 [Example 7],98,31,16
"CNC(=O)c1cc(Oc2ccc3nc(NC(=O)C4CCCCC4)ncc3c2)ccn1 [Example 59, 4-(2-(cyclohexanecarboxamido)quinazolin-6-yloxy)-N-methylpicolinamide]",99,13,13
"CNC(=O)c1cc(Oc2ccc3nc(Nc4cccc5c4OC(F)(F)O5)ncc3c2)ccn1 [Example 68, 4-(2-(2,2-difluorobenzo[d][1,3]dioxol-4-ylamino)quinazolin-6-yloxy)-N-methylpicolinamide]",98,10,2
"CNC(=O)c1cc(Oc2ccc3nc(NC4CCCC4)ncc3c2)ccn1 [Example 66, 4-(2-(cyclopentylamino)quinazolin-6-yloxy)-N-methylpicolinamide]",96,13,< 1
"CNC(=O)c1cc(Oc2ccc3nc(NCC4(N5CCOCC5)CCCCC4)ncc3c2)ccn1 [Example 37, N-methyl-4-(2-((1-morpholinocyclohexyl)methylamino)quinazolin-6-yloxy)picolinamide]",99,16,< 1
"Cn1cc(-c2cc(Oc3ccc4nc(NCC5CCCCC5)ncc4c3)ccn2)cn1 [Cmpd 21, N-(cyclohexylmethyl)-6-(2-(1-methyl-1H-pyrazol-4-yl)pyridin-4-yloxy)quinazolin-2-amine]",100,100,91
"CNC(=O)c1cc(Oc2ccc3nc(NCC4CC4)ncc3c2)ccn1 [Example 53, 4-(2-(cyclopropylmethylamino)quinazolin-6-yloxy)-N-methylpicolinamide]",83,< 1,9
CNC(=O)c1cc(Oc2ccc3nc(N[C@@H]4CCCC[C@H]4O)ccc3c2)ccn1 [Example 1],100,51,33
CNC(=O)c1cc(Oc2ccc3nc(N[C@H]4CCCC[C@@H]4O)ccc3c2)ccn1 [Example 2],100,21,32
"CNC(=O)c1cc(Oc2ccc3nc(Nc4ccccc4OC)ncc3c2)ccn1 [Example 44, 4-(2-(2-methoxyphenylamino)quinazolin-6-yloxy)-N-methylpicolinamide]",99,44,3
"CNC(=O)c1cc(Oc2ccc3nc(N[C@H](C)c4ccccc4)ncc3c2)ccn1 [Example 38, (R)-N-methyl-4-(2-(1-phenylethylamino)quinazolin-6-yloxy)picolinamide]",99,92,46
"CNC(=O)c1cc(Oc2ccc3nc(Nc4ccccc4CN4CCOCC4)ncc3c2)ccn1 [Example 67, N-methyl-4-(2-(2-(morpholinomethyl)phenylamino)quinazolin-6-yloxy)picolinamide]",96,13,< 1
"CNC(=O)c1cc(Oc2ccc3nc(NC(=O)NC4CCCCC4)ncc3c2)ccn1 [Example 60, 4-(2-(3-cyclohexylureido)quinazolin-6-yloxy)-N-methylpicolinamide]",97,17,12
"CNC(=O)c1cc(Oc2ccc3nc(NCc4ccc5c(c4)OCCO5)ncc3c2)ccn1 [Example 43, 4-(2-((2,3-dihydrobenzo[b][1,4]dioxin-6-yl)methylamino)quinazolin-6-yloxy)-N-methylpicolinamide]",98,24,< 1
CNC(=O)c1cc(Oc2ccc3nc(N[C@@H]4CCCC[C@H]4O)ncc3c2)ccn1 [Example 11],99,23,21
"CCNC(=O)c1cc(Oc2ccc3nc(Nc4ccccc4N4CCOCC4)ncc3c2)ccn1 [Example 34, N-ethyl-4-(2-(2-morpholinophenylamino)quinazolin-6-yloxy)picolinamide]",80,14,2
"CNC(=O)c1cc(Oc2ccc3nc(NC4CCOCC4)ncc3c2)ccn1 [Example 58, N-methyl-4-(2-(tetrahydro-2H-pyran-4-ylamino)quinazolin-6-yloxy)picolinamide]",65,8,< 1
"Nc1cc(Oc2ccc3nc(Nc4ccccc4N4CCOCC4)ncc3c2)ccn1 [Example 29, 6-(2-aminopyridin-4-yloxy)-N-(2-morpholinophenyl)quinazolin-2-amine]",90,9,1
"NC(=O)c1cc(Oc2ccc3nc(Nc4ccccc4N4CCOCC4)ncc3c2)ccn1 [Example 33, 4-(2-(2-morpholinophenylamino)quinazolin-6-yloxy)picolinamide]",84,14,< 1
"CNC(=O)c1cc(Oc2ccc3nc(NCCN4CCOCC4)ncc3c2)ccn1 [Example 35, N-methyl-4-(2-(2-morpholinoethylamino)quinazolin-6-yloxy)picolinamide]",71,7,< 1
"CN(C)C(=O)c1cc(Oc2ccc3nc(Nc4ccccc4N4CCOCC4)ncc3c2)ccn1 [Example 31, N,N-dimethyl-4-(2-(2-morpholinophenylamino)quinazolin-6-yloxy)picolinamide]",67,8,< 1
"CNC(=O)c1cc(Oc2ccc3nc(NCc4ccccc4N4CCOCC4)ncc3c2)ccn1 [Example 41, N-methyl-4-(2-(2-morpholinobenzylamino)quinazolin-6-yloxy)picolinamide]",100,6,92
"CNC(=O)c1cc(Oc2ccc3nc(N[C@H](C)C4CCCCC4)[nH]c3c2)ccn1 [Example 83, (R)-4-(2-(1-cyclohexylethylamino)-1H-benzo[d]imidazol-6-yloxy)-N-methylpicolinamide]",100,100,100
"CNC(=O)c1cc(Oc2ccc3sc(N[C@@H]4CCCC[C@H]4O)nc3c2)ccn1 [Example 81, 4-(2-((1R,2R)-2-hydroxycyclohexylamino)benzo[d]thiazol-5-yloxy)-N-methylpicolinamide]",99,39,71
